# Measurements taken from patent US12013390B2, “EBIV nucleic acid composition and application thereof” (Wuhan Institute of Virology, Chinese Academy of Sciences, priority 2022, dated 2024).
# System: recombinant EBIV carrying green fluorescent protein
# Assay: Antiviral drug screening with green fluorescent recombinant EBIV in BHK-21 cells, fluorescence per well by high content screening
# Type: cell-based, Ebinur Lake virus (EBIV)
# Settings: Ebinur lake virus, BHK-21, 36 h, read-out: EC50 (half-maximal effect concentration)
# Procedure: Further, the recombinant EBIV disclosed in the examples of the present application can also be used for the screening of antiviral drugs, for example for the screening of antiviral compounds. The specific steps were as follows.
# (1) A 96-well plate for BHK-21 cells was prepared. The cells were planked at 10^4 cells/well. The plate was cultured in a cell incubator with a temperature of 37° C. and a CO2 concentration of 5%. The drug screening test was conducted when the cells grew to 40-50%. The drug to be tested was dissolved in dimethyl sulfoxide. Then the drug was diluted to 100 μM with DMEM medium containing 2% FBS. After that, the drug was subjected to serial 2-fold dilution to obtain the dilution gradient with the concentration of 100 μM, 50 μM, 25 μM, 12.5 μM, 6.25 μM, 3.125 μM, and 1.5625 μM, respectively (the concentration of DMSO in the diluted drug shall be <0.1%).
# (2) The original culture medium was removed from the 96-well plate. The virus was inoculated into the 96-well plate at an MOI of 0.01 and a volume of 100 μL/well. At the same time, the diluted drugs to be tested were respectively added into the same 96-well plate at 100 μL/well and mixed well with the virus solution. The plate was incubated in a cell incubator with a temperature of 37° C. and a CO2 concentration of 5% for 36 hours before detection.
# (3) The 96-well plate was photographed and data was analyzed using a high content screening (HCS) system to determine the amount of fluorescence per well and calculate the Z-factor for each compound:
# [formula] where the four parameters σs, σc, μs, and μc represent the standard deviation and mean of the sample to be tested (s) and the negative (c) control, respectively. The stability and sensitivity of the screening system were then assessed using the Z′-factor:
# [formula] where the four parameters σp, σn, μp, and μn represent the standard deviation and mean of the positive sample (p) and the negative (n) control, respectively.
# (4) Cell viability per well (and the percentage of cells remaining per well) was observed under a microscope and the half-maximal effect concentration (EC50) of the drug was calculated using GraphPad Prism 9 software and an EC50 graph was plotted.
row,Molecule,EC50
1,"NC(=O)c1ncn([C@@H]2O[C@H](CO)[C@@H](O)[C@H]2O)n1 [ribavirin, reference compound]",21.9 µM

# Same assay, conditions: even at 50 μM; BHK-21 cells, MOI 0.01, 36 hours
row,Molecule,inhibitory effect on the virus
1,"NC(=O)c1nc(F)c[nH]c1=O [favipiravir, reference compound]",no inhibitory effect

# Same assay, conditions: high-content screening; compared with Z'-factor 0.46 of the system (25 μM ribavirin positive control)
row,Molecule,Z-factor
1,Oc1cc(O)c2c(c1)O[C@H](c1cc(O)c(O)c(O)c1)[C@H](O)C2 [Epigallocatechol],0.51
2,CC(C)=CCc1cc2c(cc1O)oc(=O)c1c3ccc(O)cc3oc21 [Psoralidin],0.46
3,"C[C@H](CCC(=O)O)[C@H]1CC[C@H]2[C@@H]3[C@H](O)C[C@@H]4C[C@H](O)CC[C@]4(C)[C@H]3CC[C@]12C [Chenodeoxycholic acid, reference compound]",0.59
4,C=C[C@H]1[C@H](O[C@@H]2O[C@H](CO)[C@@H](O)[C@H](O)[C@H]2O)OC=C(C(=O)OC)[C@H]1CC(=O)O [Secoxyloganin],0.56
5,"COc1ccc(-c2cc(=O)c3c(O)cc(O[C@@H]4O[C@H](CO[C@@H]5O[C@@H](C)[C@H](O)[C@@H](O)[C@H]5O)[C@@H](O)[C@H](O)[C@H]4O)cc3o2)cc1O [Diosmin, reference compound]",0.58
6,"CC(C)=CCC(OC(=O)C=C(C)C)C1=CC(=O)c2c(O)ccc(O)c2C1=O (stereo not drawn) [Beta, beta-dimethyl acryl shikonin]",0.53
7,C[C@@]12C(=O)OC(=O)[C@]1(C)[C@H]1CC[C@@H]2O1 [Cantharidin],0.50
8,CC(C)=CCc1c(O)ccc(C(=O)/C=C/c2ccc(O)cc2)c1O [Isobavachalcone],0.58
9,Clinodiside Aogenin A,0.54
